pIC50: −log10 of the molar value.
Key:
[1] = molecular target: T1, Endoplasmic reticulum aminopeptidase 2 (Homo sapiens, UniProt Q6P179); experiment: Inhibition of ERAP2 (unknown origin) using R-AMC as substrate
[2] = molecular target: T1, Endoplasmic reticulum aminopeptidase 2; experiment: Inhibition of C-terminal Hexa-histidine-tagged human recombinant ERAP2 expressed in Sf9 cells using R-AMC as substrate incubated for 15 mins by Michaelis-Menten analysis
[3] = molecular target: T2, Endoplasmic reticulum aminopeptidase 1 (Homo sapiens, UniProt Q9NZ08); experiment: Inhibition of C-terminal Hexa-histidine-tagged human recombinant ERAP1 expressed in Sf9 cells using L-AMC as substrate incubated for 15 mins by Michaelis-Menten analysis
T2 sequence (Q9NZ08 whole entry): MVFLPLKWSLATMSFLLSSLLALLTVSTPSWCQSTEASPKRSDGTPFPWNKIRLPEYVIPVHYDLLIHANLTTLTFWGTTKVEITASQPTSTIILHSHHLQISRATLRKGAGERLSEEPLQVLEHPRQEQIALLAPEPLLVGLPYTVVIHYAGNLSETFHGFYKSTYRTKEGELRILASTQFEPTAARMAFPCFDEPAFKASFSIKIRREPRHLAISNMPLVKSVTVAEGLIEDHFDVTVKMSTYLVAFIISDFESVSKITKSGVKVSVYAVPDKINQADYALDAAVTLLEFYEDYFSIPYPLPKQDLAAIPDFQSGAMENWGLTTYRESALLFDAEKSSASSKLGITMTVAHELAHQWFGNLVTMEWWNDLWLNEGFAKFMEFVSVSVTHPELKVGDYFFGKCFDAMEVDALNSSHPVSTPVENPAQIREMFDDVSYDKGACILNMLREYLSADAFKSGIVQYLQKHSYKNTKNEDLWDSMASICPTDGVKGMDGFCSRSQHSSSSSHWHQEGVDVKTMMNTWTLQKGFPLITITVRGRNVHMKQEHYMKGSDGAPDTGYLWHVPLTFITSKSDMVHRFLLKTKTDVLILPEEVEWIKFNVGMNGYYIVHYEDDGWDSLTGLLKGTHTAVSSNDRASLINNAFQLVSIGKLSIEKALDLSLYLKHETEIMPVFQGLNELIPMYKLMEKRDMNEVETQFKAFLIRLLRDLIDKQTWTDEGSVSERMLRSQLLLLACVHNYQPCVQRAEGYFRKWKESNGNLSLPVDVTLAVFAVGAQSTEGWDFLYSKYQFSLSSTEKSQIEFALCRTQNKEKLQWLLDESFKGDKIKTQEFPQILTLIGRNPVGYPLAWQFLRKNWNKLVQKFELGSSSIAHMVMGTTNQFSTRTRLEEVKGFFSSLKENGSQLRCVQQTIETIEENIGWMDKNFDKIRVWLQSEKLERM

[4] = molecular target: Aminopeptidase N (Homo sapiens, UniProt P15144); experiment: Inhibition of FLAG-tagged human recombinant Aminopeptidase N
Aminopeptidase N, sequence (P15144 whole entry): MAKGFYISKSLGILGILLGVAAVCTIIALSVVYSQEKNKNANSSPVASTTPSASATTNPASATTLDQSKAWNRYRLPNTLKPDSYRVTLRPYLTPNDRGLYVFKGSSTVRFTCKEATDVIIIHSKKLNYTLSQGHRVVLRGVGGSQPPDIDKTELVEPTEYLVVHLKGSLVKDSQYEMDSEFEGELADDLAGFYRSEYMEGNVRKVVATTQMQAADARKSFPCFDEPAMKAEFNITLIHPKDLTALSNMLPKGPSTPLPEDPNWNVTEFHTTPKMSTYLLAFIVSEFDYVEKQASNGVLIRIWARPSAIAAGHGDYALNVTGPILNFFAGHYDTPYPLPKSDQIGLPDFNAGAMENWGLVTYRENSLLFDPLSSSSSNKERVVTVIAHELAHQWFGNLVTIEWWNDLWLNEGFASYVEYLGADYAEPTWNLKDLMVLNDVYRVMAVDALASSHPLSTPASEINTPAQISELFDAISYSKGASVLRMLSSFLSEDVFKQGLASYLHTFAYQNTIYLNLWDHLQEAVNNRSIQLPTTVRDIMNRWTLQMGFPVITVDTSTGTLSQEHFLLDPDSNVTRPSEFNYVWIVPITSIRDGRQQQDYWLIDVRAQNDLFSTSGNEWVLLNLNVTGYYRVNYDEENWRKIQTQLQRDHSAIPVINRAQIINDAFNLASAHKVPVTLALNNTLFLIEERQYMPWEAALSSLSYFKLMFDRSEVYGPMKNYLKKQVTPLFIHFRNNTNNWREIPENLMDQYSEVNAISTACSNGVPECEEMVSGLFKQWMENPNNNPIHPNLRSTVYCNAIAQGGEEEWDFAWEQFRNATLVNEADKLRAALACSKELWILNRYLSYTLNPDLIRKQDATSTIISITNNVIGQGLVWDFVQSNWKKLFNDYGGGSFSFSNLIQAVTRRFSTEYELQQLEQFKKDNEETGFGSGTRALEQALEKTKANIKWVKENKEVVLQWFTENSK

[5] = molecular target: T2, Endoplasmic reticulum aminopeptidase 1; experiment: Inhibition of ERAP1 (unknown origin) using L-AMC as substrate
[6] = Inhibition of C-terminal Hexa-histidine-tagged human recombinant IRAP expressed in Sf9 cells using R-AMC as substrate incubated for 15 mins by Michaelis-Menten analysis
[7] = molecular target: T3, Leukotriene A-4 hydrolase (Homo sapiens, UniProt P09960); experiment: Inhibition of full length human recombinant Leukotriene A-4 hydrolase expressed in baculovirus infected Insect cells; set-up: species or system Insect cell
T3 sequence (P09960 whole entry): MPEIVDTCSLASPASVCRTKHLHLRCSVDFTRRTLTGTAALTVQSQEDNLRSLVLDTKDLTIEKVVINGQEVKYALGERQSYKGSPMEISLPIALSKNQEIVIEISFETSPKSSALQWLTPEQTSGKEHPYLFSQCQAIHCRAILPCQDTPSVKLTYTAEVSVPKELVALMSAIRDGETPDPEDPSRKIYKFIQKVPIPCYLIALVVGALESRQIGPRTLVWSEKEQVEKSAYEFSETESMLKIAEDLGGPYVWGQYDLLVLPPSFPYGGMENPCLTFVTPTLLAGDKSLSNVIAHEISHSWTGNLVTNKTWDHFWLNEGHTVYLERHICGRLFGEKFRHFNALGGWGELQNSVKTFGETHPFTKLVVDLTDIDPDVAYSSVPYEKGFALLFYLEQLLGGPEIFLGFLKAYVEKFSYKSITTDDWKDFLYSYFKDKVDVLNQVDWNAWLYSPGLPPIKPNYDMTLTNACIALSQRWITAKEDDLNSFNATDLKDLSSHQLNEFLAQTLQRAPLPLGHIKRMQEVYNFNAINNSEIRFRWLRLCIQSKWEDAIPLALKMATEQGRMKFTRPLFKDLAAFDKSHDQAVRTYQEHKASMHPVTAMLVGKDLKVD

[8] = molecular target: Cytosol aminopeptidase (Homo sapiens, UniProt P28838); experiment: Inhibition of human recombinant Leucine aminopeptidase 3
Cytosol aminopeptidase, sequence (P28838 whole entry): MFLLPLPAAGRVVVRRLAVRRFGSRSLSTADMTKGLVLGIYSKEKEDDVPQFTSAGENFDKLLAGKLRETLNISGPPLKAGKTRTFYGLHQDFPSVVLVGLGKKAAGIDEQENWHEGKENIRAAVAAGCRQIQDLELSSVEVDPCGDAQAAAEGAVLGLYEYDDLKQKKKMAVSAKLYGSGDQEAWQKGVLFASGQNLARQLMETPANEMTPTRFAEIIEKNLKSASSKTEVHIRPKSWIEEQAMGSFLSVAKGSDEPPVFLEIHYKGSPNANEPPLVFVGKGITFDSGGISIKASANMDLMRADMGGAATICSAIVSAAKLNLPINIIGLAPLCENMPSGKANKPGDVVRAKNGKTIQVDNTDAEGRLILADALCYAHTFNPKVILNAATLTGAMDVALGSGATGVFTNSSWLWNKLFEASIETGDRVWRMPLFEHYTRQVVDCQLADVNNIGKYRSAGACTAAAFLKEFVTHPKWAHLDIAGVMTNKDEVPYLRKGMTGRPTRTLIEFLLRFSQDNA

T1 sequence (Q6P179 whole entry): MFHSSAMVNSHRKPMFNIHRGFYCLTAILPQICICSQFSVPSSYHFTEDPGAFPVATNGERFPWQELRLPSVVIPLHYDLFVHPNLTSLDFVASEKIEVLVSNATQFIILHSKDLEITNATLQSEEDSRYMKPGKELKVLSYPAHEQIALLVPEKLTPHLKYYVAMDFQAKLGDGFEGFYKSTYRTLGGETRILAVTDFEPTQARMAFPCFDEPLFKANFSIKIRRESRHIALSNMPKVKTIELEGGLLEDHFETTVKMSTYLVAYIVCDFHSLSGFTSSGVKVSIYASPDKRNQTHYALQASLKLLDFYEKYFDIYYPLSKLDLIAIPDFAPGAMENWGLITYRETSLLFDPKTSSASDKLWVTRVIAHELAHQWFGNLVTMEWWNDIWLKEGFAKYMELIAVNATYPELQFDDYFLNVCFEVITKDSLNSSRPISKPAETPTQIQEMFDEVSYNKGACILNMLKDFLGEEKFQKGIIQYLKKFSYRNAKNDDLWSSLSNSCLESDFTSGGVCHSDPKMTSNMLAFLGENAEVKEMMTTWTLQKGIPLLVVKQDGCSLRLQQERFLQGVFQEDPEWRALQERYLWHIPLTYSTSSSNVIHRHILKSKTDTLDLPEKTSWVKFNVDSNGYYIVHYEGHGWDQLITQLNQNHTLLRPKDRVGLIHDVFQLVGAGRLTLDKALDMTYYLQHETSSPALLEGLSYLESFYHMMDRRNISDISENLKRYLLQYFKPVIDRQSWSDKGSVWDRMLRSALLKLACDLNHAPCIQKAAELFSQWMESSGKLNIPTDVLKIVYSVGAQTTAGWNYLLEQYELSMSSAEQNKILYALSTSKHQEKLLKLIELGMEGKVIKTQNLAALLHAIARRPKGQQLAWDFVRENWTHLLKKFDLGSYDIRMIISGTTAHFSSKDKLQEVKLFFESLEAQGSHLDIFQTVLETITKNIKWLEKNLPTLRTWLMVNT

COc1ccc(C(=O)O)cc1S(=O)(=O)Nc1ccc(C(F)(F)F)cc1N1CCCCC1
pIC50 [1]: 4.57

CC(C)C[C@H](N)CS
pIC50 [2]: 6.21 | pIC50 [3]: 6.96 | pIC50 [4]: 8.10

COc1ccc(C[C@@H](C(=O)NO)n2cc(CNS(=O)(=O)c3ccc(-c4ccccc4)s3)nn2)cc1
pIC50 [5]: < 4.00

O=C(NO)[C@H](Cc1ccc(Oc2ccccc2)cc1)n1cc(CNS(=O)(=O)c2ccc(-c3ccccn3)s2)nn1
pIC50 [5]: < 4.00

O=C(C[C@H](Cc1ccc(O)cc1)n1nncc1CNS(=O)(=O)c1ccc(-c2ccccn2)s1)NO
pIC50 [5]: < 4.00

CC(C)C[C@@H](N)[C@H](O)C(=O)N[C@H](C(=O)N[C@H](C(=O)N[C@@H](CC(=O)O)C(=O)O)C(C)C)C(C)C [AMASTATIN]
pIC50 [3]: 4.66 | pIC50 [6]: 4.60

CC(C)C[C@@H](C(=O)N[C@H](C(=O)OC1CCCC1)c1ccccc1)[C@H](O)C(=O)NO [TOSEDOSTAT]
pIC50 [2]: 6.11 | pIC50 [3]: 4.74 | pIC50 [7]: 8.10 | pIC50 [8]: 8.30 | pIC50 [4]: 7.52

CC(C)C[C@H](NC(=O)[C@@H](O)[C@H](N)Cc1ccccc1)C(=O)O [UBENIMEX]
pIC50 [3]: 4.96 | pIC50 [6]: < 4.00
